Patent publication US9877961B2, “Anticoagulant reversal agents” (PEROSPHERE INC., priority 2011, dated 2018)
Marks after values point to notes of the source that are not given here.

Assays:
[1] = assumption used for Table 3; cited from earlier work
[2] = system: apixaban (ELIQUIS®) anticoagulation; assay: Rat tail transection bleeding assay, apixaban; type: in vivo; details: apixaban, oral; Bleeding assay; minimal in vivo reversal dose; assumes 50% oral bioavailability
Method: (§1) Rat tail bleeding assay or rat tail transection assay is an assay that measures blood loss, e.g., blood loss after drug administration. In one embodiment, where the effect of the compound of the invention (e.g., DAP) is being tested, at the Tmax of the anticoagulant, DAP is administered intravenously. After 20 minutes, rat tails are transected approximately 1 mm from the tip, placed in room temperature saline, and blood is collected for 30 minutes and weighed.
(§2) Three rats each were administered 2 mg of rivaroxaban. One rat received a sham reversal containing no DAP, the second received 2.5 mg of DAP, and the third received 12.5 mg DAP. A fourth fat received sham anticoagulant and reversal doses (“sham”). 20 minutes after the reversal dose, tails were transected 1 mm from the tip, placed in room temperature saline, and blood loss was collected for 30 minutes and then weighed.
Same procedures were used with 1.25 mg apixaban (ELIQUIS®) alone or in combination with 5 or 12.5 mg DAP; with 15.5 mg dabigatran etexilate (PRADAXA®) alone or in combination with 5 or 12.5 mg DAP; and with 5 mg edoxaban (LIXIANA®) alone or in combination with 12.5 mg DAP.

[3] = Binding of anticoagulants to DAP (DLS; summary Tables 2 and 3); details: lowest DAP:anticoagulant ratio with association above 50 nm apparent diameter in phosphate buffered saline
[4] = system: dabigatran (PRADAXA®) anticoagulation; assay: DAP reversal of dabigatran (PRADAXA®) anticoagulation in vivo, aPTT; parameters: species or system rat; details: 40 mg/kg oral gavage, 2 hours; baseline 43 seconds
Excerpt: The activated partial thromboplastin time (aPTT) assay is an assay that measures how long it takes for the blood to clot. Blood samples are collected for direct measurement or in tubes with oxalate and citrate to arrest coagulation by calcium until the assay can be performed. In the assay, a phospholipid, an activator (silica, celite, kaolin, ellagic acid, etc.), and calcium are mixed into the plasma to induce coagulation. The assay measures the time until a thrombus (clot) forms.
A male albino rat, weighing 430 g, was administered 40 mg/kg of PRADAXA® (20 mg PRADAXA®; overdose of PRADAXA®) by oral gavage.
Approximately 2 hours into PRADAXA® treatment, 200 mg/kg DAP (100 mg DAP) was administered as an intravenous bolus injection. Approximately 2 hours later, the rat was administered a dose of 100 mg/kg of DAP (50 mg DAP). In another hour, the rat was administered another dose of 100 mg/kg of DAP (50 mg DAP). aPTT was measured throughout the course of the entire treatment.

[5] = system: Factor Xa; details: cited from earlier work
[6] = cited from earlier work
[7] = system: fondaparinux anticoagulation; assay: DAP reversal of fondaparinux (ARIXTRA®) anticoagulation in vivo, chromogenic Factor Xa assay; parameters: species or system rat; details: fondaparinux s.c.; Xa kit; 200 mg/kg DAP was the lowest dose administered
Method: The anti-factor Xa assay directly measures anti-factor Xa activity. The methodology behind an anti-factor Xa assay is that patient plasma is added to a known amount of excess factor Xa and excess antithrombin. If a factor Xa inhibitor is present in the patient plasma, it will reduce the enzymatic activity of factor Xa. The amount of residual factor Xa is inversely proportional to the amount of anti-Xa agent in the plasma. The amount of residual factor Xa is detected by adding a chromogenic substrate that mimics the natural substrate of factor Xa, making residual factor Xa cleave it, releasing a colored compound that can be detected by a spectrophotometer. […] Results are given in anticoagulant concentration in units/mL of antifactor Xa, such that high values indicate high levels of anticoagulation and low values indicate low levels of anticoagulation.
5 mg/kg fondaparinux was administered subcutaneously to rats. 200 mg/kg DAP was administered intravenously after 2 hours. Activity was measured by chromogenic 510 k cleared Factor Xa Assay (Biophen) at 10, 20, 30 and 60 minutes after DAP administration.

[8] = system: rivaroxaban anticoagulation; assay: Rat tail transection bleeding assay, rivaroxaban; type: in vivo; details: rivaroxaban, oral; Bleeding assay; minimal in vivo reversal dose; assumes 60% oral bioavailability
Method: as §1, §2

| SMILES | oral bioavailability (assumed) [1] [%] | Reversal Molar Ratio [DAP/drug] [2] | DLS Binding Molar Ratio [DAP/drug] [3] | aPTT after PRADAXA® administration [4] [s] | potentiation of innate neutralization of Factor Xa by ATIII [5] | time to peak steady-state plasma concentration ([6]; patients, 2.5 mg once daily, post-dose) | absolute bioavailability ([6]; subcutaneous injection) [%] | Reversal Molar Ratio [DAP/drug] [7] | Reversal Molar Ratio [DAP/drug] [8] |
| --- | --- | --- | --- | --- | --- | --- | --- | --- | --- |
| COc1ccc(-n2nc(C(N)=O)c3c2C(=O)N(c2ccc(N4CCCCC4=O)cc2)CC3)cc1 [Apixaban, 1-(4-methoxyphenyl)-7-oxo-6-[4-(2-oxopiperidin-1-yl)phenyl]-4,5-dihydropyrazolo[5,4-c]pyridine-3-carboxamide] | 50 | 8* | 10 | – | – | – | – | – | – |
| CCCCCCOC(=O)NC(=N)c1ccc(NCc2nc3cc(C(=O)N(CCC(=O)OCC)c4ccccn4)ccc3n2C)cc1.CS(=O)(=O)O [Dabigatran etexilate, β-Alanine, N-[[2-[[[4-[[[(hexyloxy)carbonyl]amino]iminomethyl]phenyl]amino]methyl]-1-methyl-1H-benzimidazol-5-yl]carbonyl]-N-2-pyridinyl-,ethyl ester, methanesulfonate] | 5 | – | – | 81 | – | – | – | – | – |
| CO[C@H]1O[C@H](COS(=O)(=O)[O-])[C@@H](O[C@@H]2O[C@@H](C(=O)[O-])[C@@H](O[C@H]3O[C@H](COS(=O)(=O)[O-])[C@@H](O[C@@H]4O[C@H](C(=O)[O-])[C@@H](O[C@H]5O[C@H](COS(=O)(=O)[O-])[C@@H](O)[C@H](O)[C@H]5NS(=O)(=O)[O-])[C@H](O)[C@H]4O)[C@H](OS(=O)(=O)[O-])[C@H]3NS(=O)(=O)[O-])[C@H](O)[C@H]2OS(=O)(=O)[O-])[C@H](O)[C@H]1NS(=O)(=O)[O-].[Na+].[Na+].[Na+].[Na+].[Na+].[Na+].[Na+].[Na+].[Na+].[Na+] [Fondaparinux, methyl O-2-deoxy-6-O-sulfo-2-(sulfoamino)-α-D-glucopyranosyl-(1→4)-O-β-D-glucopyra-nuronosyl-(1→4)-O-2-deoxy-3,6-di-O-sulfo-2-(sulfoamino)-α-D-glucopyranosyl-(1→4)-O-2-O-sulfo-α-L-idopyranuronosyl-(1→4)-2-deoxy-6-O-sulfo-2-(sulfoamino)-α-D-glucopyranoside, decasodium salt] | – | – | 3 | – | about 300 times | approximately 3 hours | 100 | 130 | – |
| O=C(NC[C@H]1CN(c2ccc(N3CCOCC3=O)cc2)C(=O)O1)c1ccc(Cl)s1 [Rivaroxaban, 5-Chloro-N-({(5S)-2-oxo-3-[4-(3-oxo-4-morpholinyl)phenyl]-1,3-oxazolidin-5-yl}methyl)-2-thiophenecarboxamide] | 60 | – | 9 | – | – | – | – | – | 3* |
